One experiment has as its target T1, WT/R232 STING protein (Homo sapiens, UniProt Q86WV6, H232R).
T1 construct: host or cells: HEK293T
The experiment in a line: Luciferase reporter assay in HEK293T-hSTING-Luciferase cells, WT/R232. Type of experiment: cell-based. The following applies: 20 hr stimulation, read-out: R232 Activity (EC50 range). The method in brief: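 Clonal HEK293T cells stably expressing human STING R232 plus an ISRE/ISG54-driven luciferase reporter, 5×10^5 per well, stimulated with compounds for 20 h. Secreted luciferase in supernatant measured by luminescence; […].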

Another experiment addresses T2, hSTING(H232) (Homo sapiens, UniProt Q86WV6).
T2 construct: host or cells: HEK293T
The experiment can be described thus: Luciferase reporter assay in HEK293T-hSTING-Luciferase cells, H232 polymorph. Type of experiment: cell-based. Particulars: 20 hr stimulation, read-out: H232 activity (EC50 range). The text has this:
(§1) • a) Stable STING expressing cells—Stable HEK293T STING-expressing cell lines were generated using plasmids purchased from Invivogen, Calif., USA, that contain STING cDNA cloned into the pUNO-1 vector under hEF1-HTLV promoter and containing the Blasticidin selection cassette. The plasmids hSTING(R232), hSTING(H232), hSTING(HAQ) were directly procured from Invivogen while hSTING (AQ) and hSTING (Q) were derived from hSTING(HAQ) and hSTING (R232) plasmids respectively by using a PCR based site directed mutagenesis method. These vectors were individually transfected into HEK293T cells using Lipofectamine (Invitrogen) and transfected cells were selected under Blasticidin selection. These transfected cells were further subjected to clonal selection using the limiting dilution method to obtain clonally pure populations of HEK cells transfected with each of the above mentioned human STING variants. Only those clones were selected in which ligand independent activation of STING was minimal. • b) Stable Luciferase reporter gene expressing cells—Stable HEK293T Luciferase reporter gene expressing cell lines were generated using pCDNA4 plasmids under an IRF-inducible promoter. This promoter is comprised of five tandem interferon-stimulated response elements (ISRE) fused to an ISG54 minimal promoter. This vector was transfected into HEK293T cells using Lipofectamine (Invitrogen) and transfected cells were selected under Zeocin selection. These transfected cells were further subjected to clonal selection using the limiting dilution method to obtain clonally pure populations of HEK cells transfected the Luciferase reporter construct. Only those clones were selected in which ligand independent induction of luciferase was minimal.
(§2) 5×10^5 clonally selected HEK293T-hSTING-Luciferase cells were seeded in 384-well plates in growth medium and stimulated with novel compounds. After 20 hr of stimulation supernatant were removed and secretary reporter gene activity were measured using the Quanti-Luc detection system (Invivogen) on a Spectramax i3X luminometer.
(§3) The 5 major polymorphisms of human STING are shown in FIG. 1, with their prevalence in human populations indicated.

A further experiment addresses T3, hSTING(HAQ) (Homo sapiens, UniProt Q86WV6, G230A/H232R/R293Q/R71H).
T3 construct: host or cells: HEK293T
The experiment in a line: Luciferase reporter assay in HEK293T-hSTING-Luciferase cells, HAQ polymorph. Type of experiment: cell-based. The following applies: 20 hr stimulation, read-out: HAQ activity (EC50 range).
Excerpt: as §1, §2, §3
A general note: Reporter assays use an easily measured gene product as a stand-in for the process of interest.

The test system of another experiment is IRF pathway. The experiment in a line: Reporter gene expression assay in THP1-Dual cells, IRF axis (secreted Lucia luciferase). Type of experiment: cell-based, human. The following applies: read-out: THP-IRF activity (EC50 range). As for the experimental part: (§4) THP1-Dual™ cells (Invivogen) were derived from the human THP-1 monocyte cell line by stable integration of two inducible reporter constructs. As a result, THP1-Dual™ cells allow the simultaneous study of the NF-κB pathway, by monitoring the activity of secreted SEAP, and the IRF pathway, by assessing the activity of a secreted luciferase (Lucia). […] THP1-Dual™ cells were seeded in 384-well plates in growth medium and stimulated with novel compounds. After […] of stimulation supernatant were removed and reporter proteins were readily measured in the cell culture supernatant using QUANTI-Blue™ (Invivogen), a SEAP detection reagent, and QUANTI-Luc™ (Invivogen), a luciferase detection reagent on a Spectramax i3X luminometer.

For the next experiment, the system named is NF-κB pathway. The experiment can be described thus: Reporter gene expression assay in THP1-Dual cells, NFkB axis (secreted SEAP). The following applies: read-out: THP-NFKB activity (EC50 range). Type of experiment: cell-based, human. The procedure: as §4

From patent publication US20200138827A1, “SMALL MOLECULE MODULATORS OF HUMAN STING” (Curadev Pharma Limited, priority 2017, published 2020) come the findings set out here.

Structures are written as SMILES. pEC50: −log10 of the molar value. Read-outs that look alike come from different tables or passages of the source.

T3 sequence (Q86WV6 whole entry R71H/G230A/H232R/R293Q): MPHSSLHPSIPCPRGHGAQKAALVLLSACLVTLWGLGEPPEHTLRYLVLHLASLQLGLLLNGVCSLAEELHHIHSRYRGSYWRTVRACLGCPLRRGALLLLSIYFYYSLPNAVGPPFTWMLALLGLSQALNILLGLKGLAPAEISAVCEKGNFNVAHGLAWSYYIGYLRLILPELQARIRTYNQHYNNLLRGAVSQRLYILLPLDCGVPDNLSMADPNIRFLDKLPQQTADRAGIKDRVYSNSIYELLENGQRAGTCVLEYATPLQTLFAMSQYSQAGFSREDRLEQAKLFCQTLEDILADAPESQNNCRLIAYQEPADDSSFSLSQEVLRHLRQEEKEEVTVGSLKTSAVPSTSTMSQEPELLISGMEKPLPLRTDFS
T2 sequence (Q86WV6 whole entry): as the sequence (Q86WV6 whole entry R71H/G230A/H232R/R293Q) above, with H71R, A230G, R232H, Q293R counted along it
T1 sequence (Q86WV6 whole entry H232R): as the sequence (Q86WV6 whole entry R71H/G230A/H232R/R293Q) above, with H71R, A230G, Q293R counted along it

As for `C=CCC1Sc2ccc(C(=O)NCc3c(F)cc(F)cc3F)cc2N(Cc2c(F)cccc2Cl)C1=O` (centres unmarked) [Example 146, 2-allyl-4-(2-chloro-6-fluorobenzyl)-3-oxo-N-(2,4,6-trifluorobenzyl)-3,4-dihydro-2H-benzo[b-1,4]thiazine-6-carboxamide], the pEC50 at WT/R232 STING protein is above 6.00; at hSTING(H232), 5.00 to 6.00; at hSTING(HAQ), 5.00 to 6.00; with IRF pathway (Homo sapiens, THP1-Dual) it was below 5.00; in the experiment with NF-κB pathway (Homo sapiens, THP1-Dual), below 5.00.
As to `CC1Sc2ccc(C(=O)NCc3c(F)cc(F)cc3F)cc2N(Cc2cc(F)cc(F)c2)C1=O` (centres unmarked) [Example 148, 4-(3,5-difluorobenzyl)-2-methyl-3-oxo-N-(2,4,6-trifluorobenzyl)-3,4-dihydro-2H-benzo[b][1,4] thiazine-6-carboxamide], the pEC50 is above 6.00 at WT/R232 STING protein; above 6.00 on hSTING(H232); above 6.00 on hSTING(HAQ); 5.00 to 6.00 in the experiment on IRF pathway; above 6.00 in the experiment with NF-κB pathway.
As to `CC1(C)Sc2ccc(C(=O)NCC3CCCCC3)cc2N(Cc2ccccc2F)C1=O` [Example 136, N-(cyclohexylmethyl)-4-(2-fluorobenzyl)-2,2-dimethyl-3-oxo-3,4-dihydro-2H-benzo[b-1,4]thiazine-6-carboxamide], the pEC50 at WT/R232 STING protein was 5.00 to 6.00; at hSTING(H232), below 5.00; at hSTING(HAQ), below 5.00; in the experiment on IRF pathway (Homo sapiens, THP1-Dual), below 5.00; in the experiment with NF-κB pathway (Homo sapiens, THP1-Dual) it was below 5.00.
`Cc1ccc(CNC(=O)c2ccc3c(n2)N(Cc2c(F)cccc2Cl)C(=O)C(C)S3)o1` (centres unmarked) [Example 202, 4-(2-chloro-6-fluorobenzyl)-2-methyl-N-((5-methylfuran-2-yl)methyl)-3-oxo-3,4-dihydro-2H-pyrido[3,2-b] [1,4]thiazine-6-carboxamide]: the pEC50 on WT/R232 STING protein was 5.00 to 6.00; at hSTING(H232) it was 5.00 to 6.00; at hSTING(HAQ), 5.00 to 6.00; with IRF pathway (Homo sapiens, THP1-Dual), below 5.00; in the experiment on NF-κB pathway (Homo sapiens, THP1-Dual), below 5.00.
Consider `Cc1cc(CN2C(=O)C(C)Sc3ccc(C(=O)NCc4c(F)cc(F)cc4F)cc32)no1` (centres unmarked) [Example 159, 2-methyl-4-((5-methylisoxazol-3-yl)methyl)-3-oxo-N-(2,4,6-trifluorobenzyl)-3,4-dihydro-2H-benzo[b][1,4] thiazine-6-carboxamide], for which the pEC50 is above 6.00 at WT/R232 STING protein; 5.00 to 6.00 on hSTING(H232); 5.00 to 6.00 at hSTING(HAQ); 5.00 to 6.00 in the experiment on IRF pathway (Homo sapiens, THP1-Dual); 5.00 to 6.00 with NF-κB pathway (Homo sapiens, THP1-Dual).
For `CC1Cc2ccc(C(=O)NCc3c(F)cc(F)cc3F)cc2N(Cc2cc(F)cc(F)c2)S1(=O)=O` (centres unmarked) [Example 285, 1-(3,5-Difluorobenzyl)-3-methyl-N-(2,4,6-trifluorobenzyl)-3,4-dihydro-1H-benzo[c][1,2]thiazine-7-carboxamide 2,2-dioxide], the pEC50 on WT/R232 STING protein is 5.00 to 6.00; at hSTING(H232) it was 5.00 to 6.00; on hSTING(HAQ), 5.00 to 6.00; in the experiment with IRF pathway (Homo sapiens, THP1-Dual), below 5.00; with NF-κB pathway (Homo sapiens, THP1-Dual), below 5.00.
As for `CC1(C)CC(=O)N(Cc2cc(F)cc(F)c2)c2cc(C(=O)NCc3c(F)cc(F)cc3F)ccc21` [Example 271, 1-(3,5-difluorobenzyl)-4,4-dimethyl-2-oxo-N-(2,4,6-trifluorobenzyl)-1,2,3,4-tetrahydroquinoline-7-carboxamide], the pEC50 at WT/R232 STING protein was above 6.00; at hSTING(H232), above 6.00; at hSTING(HAQ), above 6.00; in the experiment with IRF pathway (Homo sapiens, THP1-Dual), 5.00 to 6.00; with NF-κB pathway (Homo sapiens, THP1-Dual), 5.00 to 6.00.
With `CC1Sc2ncc(C(=O)NCc3c(F)cc(F)cc3F)cc2N(Cc2c(F)cccc2Cl)C1=O` (centres unmarked) [Example 196, 1-(2-chloro-6 fluorobenzyl) 3-methyl-2-oxo-N-(2,4,6-trifluorobenzyl)-2,3-dihydro-1H-pyrido[2,3-b][1,4]thiazine-7-carboxamide], the pEC50 at WT/R232 STING protein is above 6.00; on hSTING(H232), above 6.00; on hSTING(HAQ) it was above 6.00; in the experiment with IRF pathway (Homo sapiens, THP1-Dual) it was 5.00 to 6.00; with NF-κB pathway (Homo sapiens, THP1-Dual) it was 5.00 to 6.00.
For the compound `Cc1cc(CN2C(=O)C(C)Sc3ccc(C(=O)NCc4c(F)cc(F)cc4F)cc32)on1` (centres unmarked) [Example 158, 2-methyl-4-((3-methylisoxazol-5-yl)methyl)-3-oxo-N-(2,4,6-trifluorobenzyl)-3,4-dihydro-2H-benzo[b][1,4] thiazine-6-carboxamide], the pEC50 was above 6.00 on WT/R232 STING protein; 5.00 to 6.00 on hSTING(H232); 5.00 to 6.00 at hSTING(HAQ); 5.00 to 6.00 with IRF pathway (Homo sapiens, THP1-Dual); 5.00 to 6.00 with NF-κB pathway (Homo sapiens, THP1-Dual).
In the case of `CC1Sc2ncc(C(=O)NCc3cc4ccccc4o3)cc2N(Cc2c(F)cccc2Cl)C1=O` (centres unmarked) [Example 199, N-(benzofuran-2-ylmethyl)-1-(2-chloro-6-fluorobenzyl)-3-methyl-2-oxo-2,3-dihydro-1H-pyrido[2,3-b][1,4]thiazine-7-carboxamide], the pEC50 on WT/R232 STING protein was above 6.00; at hSTING(H232), above 6.00; on hSTING(HAQ) it was above 6.00; with IRF pathway (Homo sapiens, THP1-Dual) it was 5.00 to 6.00; with NF-κB pathway (Homo sapiens, THP1-Dual), 5.00 to 6.00.
In the case of `CC1Cc2ccc(C(=O)NCc3c(F)cc(F)cc3F)cc2N(Cc2c(F)cccc2Cl)C1=O` (centres unmarked) [Example 267, 1-(2-Chloro-6-fluorobenzyl)-3-methyl-2-oxo-N-(2,4,6-trifluorobenzyl)-1,2,3,4-tetrahydroquinoline-7-carboxamide], the pEC50 was above 6.00 at WT/R232 STING protein; above 6.00 at hSTING(H232); above 6.00 at hSTING(HAQ); 5.00 to 6.00 in the experiment with IRF pathway (Homo sapiens, THP1-Dual); 5.00 to 6.00 with NF-κB pathway (Homo sapiens, THP1-Dual).
Turning to `CC1Sc2ccc(C(=O)NCc3ccco3)cc2N(Cc2cc(F)cc(F)c2)C1=O` (centres unmarked) [Example 156, 4-(3,5-difluorobenzyl)-N-(furan-2-ylmethyl)-2-methyl-3-oxo-3,4-dihydro-2H-benzo [b][1,4]thiazine-6-carboxamide], the pEC50 was above 6.00 at WT/R232 STING protein; 5.00 to 6.00 at hSTING(H232); 5.00 to 6.00 at hSTING(HAQ); 5.00 to 6.00 in the experiment on IRF pathway (Homo sapiens, THP1-Dual); 5.00 to 6.00 in the experiment on NF-κB pathway (Homo sapiens, THP1-Dual).
As for `O=C(NCc1ccc(F)cc1F)c1ccc2c(n1)N(Cc1cc(F)cc(F)c1)C(=O)CC2` [Example 279, N-(2,4-difluorobenzyl)-8-(3,5-difluorobenzyl)-7-oxo-5,6,7,8-tetrahydro-1,8-naphthyridine-2-carboxamide], the pEC50 on WT/R232 STING protein is 5.00 to 6.00; on hSTING(H232), below 5.00; at hSTING(HAQ), below 5.00; in the experiment on IRF pathway (Homo sapiens, THP1-Dual) it was below 5.00; with NF-κB pathway (Homo sapiens, THP1-Dual), below 5.00.
On to `CC1Sc2ccc(C(=O)NCc3c(F)cc(F)cc3F)cc2N(Cc2cnn(C)c2)C1=O` (centres unmarked) [Example 133, 2-methyl-N-2,4,6-trifluorobenzyl-4-[(1-methyl-1H-pyrazol-4-yl)methyl]-3-oxo-3,4-dihydro-2H-1,4-benzothiazine-6-carboxamide], for which the pEC50 at WT/R232 STING protein is 5.00 to 6.00; on hSTING(H232) it was 5.00 to 6.00; on hSTING(HAQ), 5.00 to 6.00; in the experiment on IRF pathway (Homo sapiens, THP1-Dual), below 5.00; in the experiment with NF-κB pathway (Homo sapiens, THP1-Dual), 5.00 to 6.00.
With `O=C(NCc1ccccc1)c1ccc2c(c1)N(Cc1ccccc1)C(=O)CS2` [Example 118, N,4-dibenzyl-3-oxo-3,4-dihydro-2H-benzo[b-1,4]thiazine-6-carboxamide], the pEC50 is 5.00 to 6.00 at WT/R232 STING protein; 5.00 to 6.00 at hSTING(H232); below 5.00 at hSTING(HAQ); below 5.00 in the experiment on IRF pathway (Homo sapiens, THP1-Dual); below 5.00 in the experiment with NF-κB pathway (Homo sapiens, THP1-Dual).
For `C[C@H]1Oc2ccc(C(=O)NCc3c(F)cc(F)cc3F)cc2N(Cc2cc(F)cc(F)c2)C1=O` [Example 233, (R)-4-(3,5-difluorobenzyl)-2-methyl-3-oxo-N-(2,4.,6-trifluorobenzyl)-3,4-dihydro-2H-benzo[b-1,4]oxazine-6-carboxamide], the pEC50 is above 6.00 at WT/R232 STING protein; 5.00 to 6.00 on hSTING(H232); 5.00 to 6.00 on hSTING(HAQ); below 5.00 in the experiment with IRF pathway (Homo sapiens, THP1-Dual); below 5.00 in the experiment with NF-κB pathway (Homo sapiens, THP1-Dual).

In general, pEC50 refers to the negative decadic logarithm of the EC50, by convention in mol/L.
